Ends that are not written are not given here. * marks the point of attachment. Biotin = O=C1N[C@H]2[C@H](CS[C@H]2CCCCC(=O)*)N1

The target in one series is ACE. Set-up: method as in 2 sources, one per row (each row's own in cited_ref): ref 35 = [35]; PMID 18201802; doi:10.1016/j.peptides.2007.12.004; 35. Morissette G. Couture J.P. Désormeaux A. Adam A. Marceau F. Lack of direct interaction between enalaprilat and the kinin B 1 receptors Peptides 2008 29 606 612 10.1016/j.peptides.2007.12.004 18201 ||| ref 36 = [36]; PMID 20452384; doi:10.1016/j.peptides.2010.04.027; 36. Koumbadinga G.A. Bawolak M.T. Marceau E. Adam A. Gera L. Marceau F. A ligand-based approach to investigate the expression and function of angiotensin converting enzyme in intact human umbilical ve. To be noted: cited from earlier work.

For a further series, the system named is B1 receptor. The settings on record: cited from earlier work. From the text: (§1) (Figure 2). Thus, the EIA signal may be contaminated with the inert metabolite generated by aminopeptidase P, a significant peptidase that inactivates BK [17]. One way out is to couple the EIA quantification with chromatographic separation of kinins, such as HPLC [29].
Another series has as its system B2 receptor. The settings on record: cited from earlier work.
Excerpt: as §1

Series [1] deals with polyclonal anti-BK antibodies. The series can be described thus: Cross-reactivity of the BK EIA (Phoenix Pharmaceuticals) with kinin sequences. The class given is binding. The settings on record: Figure 2 (reproduced in part from ref 12). An excerpt:
BK and related peptides are formed locally close to their site of action (autacoids). They are extremely unstable and prone to artefactual formation when blood or tissues are sampled (for instance, following contact of blood with glass). Therefore, measuring kinins in venous blood is not really informative, contrasting with many useful peptide hormone dosages applied in endocrinology. A further challenge in concentration determination is that the BK sequence is embedded in that of precursor kininogens, with necessary separation if an antibody-based detection system is considered. Blais et al. have reviewed these pitfalls and discussed extraction procedures and recovery in the context of the currently applied immunoassays. Professor A. Adam and co-workers developed separate competitive chemiluminescence enzyme immunoassays (EIAs) for BK and des-Arg^9-BK based on digoxygenin-conjugated peptides. Now several commercially available kits are being used, such as that from Phoenix Pharmaceuticals for BK (96-well plate format), and these have the advantage of world-wide reproducibility. The sensitivity of EIAs is excellent. […]
(Figure 2). […] One way out is to couple the EIA quantification with chromatographic separation of kinins, such as HPLC [29]. […]

The test system of series [2] is polyclonal anti-BK antibodies. To be noted: cited from earlier work; for cross-reactivity in the BK EIA as stated by the manufacturer: ref Phoenix Pharmaceuticals. From the text: BK and related peptides are formed locally close to their site of action (autacoids). They are extremely unstable and prone to artefactual formation when blood or tissues are sampled (for instance, following contact of blood with glass). Therefore, measuring kinins in venous blood is not really informative, contrasting with many useful peptide hormone dosages applied in endocrinology. A further challenge in concentration determination is that the BK sequence is embedded in that of precursor kininogens, with necessary separation if an antibody-based detection system is considered. Blais e ... || Figure 2 Cross-reactivity of the BK EIA with selected kinin sequences. […] Reproduce ...

The next series has as its system human B1 receptor. To be noted: cited from earlier work. An excerpt: The present paper reviews recent literature, contains some original results, and aims to illustrate the role of the analytical biochemistry of BK-related kinins in the understanding of angioedema (AE) mediated by kinins. The kallikrein –kinin system is made of many molecular participants present or secreted in blood plasma or present at the vascular endothelial surface (Figure 1). There are two different precursors of kinins, low and high molecular weight kininogens (LK, HK; abbreviations are defined in Table 1). Those proteins are encoded by alternative splicing of a single gene ...

The nature of series [3]: Degradation of BK by intact adherent HUVECs (Phoenix Pharmaceuticals BK EIA). On the procedure:
Samples were incubated at 37 °C under agitation for the indicated time periods before extraction and EIA determination of BK. The number of replicated from different healthy donors is indicated by “n”. […] Reproduced from.
ACE activity in serum or blood plasma corresponds, in healthy individuals, to a form of the protein shed from the vascular endothelial cells in an apparently regulated manner. ACE, membrane arginine carboxypeptidase (carboxypeptidase M), aminopeptidase P and other potential kininases are expressed at the surface of vascular endothelial cells. Primary cultures of human umbilical vein endothelial cells (HUVECs) are a standard model for which significant information is available.

The conditions of series [4]: BK added ex vivo to plasma of healthy subjects who took two daily doses of enalapril maleate; cited from earlier work.
For series [5] the following is noted: cited from earlier work. On the procedure: Samples were incubated at 37 °C under agitation for the indicated time periods before extraction and EIA determination of BK. The number of replicated from different healthy donors is indicated by “n”. […] Reproduced from. (B) Catabolism of BK ... || One stored plasma sample that was received in our laboratory was partly clotted and excluded from our previous studies. […] Secondly, the par ...

The conditions of series [6]: BK 10 ng/mL, adherent HUVECs at 37 °C without serum, radioimmunoassay; cited from earlier work. An excerpt: ACE activity in serum or blood plasma corresponds, in healthy individuals, to a form of the protein shed from the vascular endothelial cells in an apparently regulated manner. ACE, membrane arginine carboxypeptidase (carboxypeptidase M), aminopeptidase P and other potential kininases are expressed at the surface of vascular endothelial cells. Primary cultures of human umbilical vein endothelial cells (HUVECs) are a standard model for which significant information is available. These cells express at their surface a high number of ACE molecule, as judged from the saturable binding of [^3 ...

One may read the Kd as the constant that tells how readily two partners part at equilibrium. Turning to `C[C@H](N[C@@H](CCc1ccccc1)C(=O)O)C(=O)N1CCC[C@H]1C(=O)O` [[^3H]enalaprilat, enalaprilat], at ACE (saturable binding to intact HUVECs), the equilibrium dissociation constant (Kd) is 0.23 nM.
Regarding “BK1–5: BK fragment produced by two cycles of ACE activity, more stable than most kinins (RPPGF; Bradykinin; UniProt P01042 381-385, looked up, fragment)”, the “activity on B1 receptors” value in the series on B1 receptor was “inactive”. Moreover, the “activity on B2 receptors” value in the series on B2 receptor is “inactive”.
Consider “BK1–7: BK fragment produced by ACE (RPPGFSP; Bradykinin; UniProt P01042 381-387, looked up, fragment)”, for which the “activity on B1 receptors” value in the series on B1 receptor is “inactive”. In addition, the “activity on B2 receptors” value in the series with B2 receptor is “inactive”.
Regarding D-Arg-BK-Arg-Arg, the “cross-reactivity in the BK EIA vs. BK” value in series [1] was “loses much affinity”; in series [1] (listed as Arg-BK-Arg-Arg) it was “partial reactivity”.
Lys-des-Arg^9-BK: the “cross-reactivity in the BK EIA” value in series [2] (Phoenix Pharmaceuticals BK EIA) was “do not cross react at all”. For the same compound, in the series on human B1 receptor, the “affinity for the human form of the B1 receptor” value is recorded as “subnanomolar affinity”.
The half-life is the time in which the quantity being followed falls by half. Turning to RPPGFSPFR [BK, bradykinin], the “stability in wells without cells (nude plastic)” value in [3] is “stable”. The half-life at 10 nM in series [3] (human, pH 7.4) was found to be 12.3 min. The “increase of BK t1/2 relative to the pre-treatment value” in series [4] is ~ 5 fold. In addition, the “time in which BK was completely cleared” value in series [5] is on record as 5 min. In addition, in series [5] (human), the “half-life (first order decay)” value is listed as 7.1 min and the t1/2 is listed as 34 s. In addition, in series [6], the half-life result is on record as “about 50 min”.
“biotinyl-BK (Biotin-RPPGFSPFR; UniProt P01042 381-389, looked up) [biotin-labelled BK tracer]”: in [2], the “cross-reactivity in the BK EIA as stated by the manufacturer” value (“cross-reactivity in the BK EIA as stated” for short) is given as “fully cross-reacts”.
In the case of “des-Arg^9-BK (RPPGFSPF; Bradykinin; UniProt P01042 381-388, looked up, fragment) [BK metabolite produced by arginine carboxypeptidases (kininase I)]”, the “cross-reactivity in the BK EIA as stated” value in series [2] is reported as “not”. Further, the “affinity for the human form of the B1 receptor” value in the series on human B1 receptor is “very weak affinity”.
On to lysyl-bradykinin [Lys-BK], for which the “cross-reactivity in the BK EIA as stated” value in series [2] was “fully cross-reacts”. Also, the “displacement of [3H]enalaprilat binding” value with ACE (HUVECs) was “displaced”.

(Values after PMC7559923, “In Vitro Modeling of Bradykinin-Mediated Angioedema States” (Pharmaceuticals, 2020).)
